Reference: BindingDB's records for doi:10.1021/jm00099a007 (Merck Research Laboratories, 1992)

Target: T1, Gag-Pol polyprotein [588-1027]/[588-1147] (Human immunodeficiency virus 1, UniProt P04585)
T1 construct: 588-1027; 588-1147
Experiment: HIV-1 RT Assay

O=c1[nH]c2ccccc2cc1NCc1ccc2ccccc2c1 [3-[(naphthalen-2-ylmethyl)amino]-1,2-dihydroquinolin-2-one]
IC50: > 300 µM
